Molecular target: T1, leukotriene receptor (Cavia porcellus, UniProt Q2NNR5)
T1 construct: Two pairs of lungs (1.3 g) from freshly sacrificed 300 g male guinea pigs; tissue Kuiper Rabbit Farm, Gary, Ind; (animals); host or cells: guinea pig lung, crude membranes
T1 sequence (Q2NNR5 1-340): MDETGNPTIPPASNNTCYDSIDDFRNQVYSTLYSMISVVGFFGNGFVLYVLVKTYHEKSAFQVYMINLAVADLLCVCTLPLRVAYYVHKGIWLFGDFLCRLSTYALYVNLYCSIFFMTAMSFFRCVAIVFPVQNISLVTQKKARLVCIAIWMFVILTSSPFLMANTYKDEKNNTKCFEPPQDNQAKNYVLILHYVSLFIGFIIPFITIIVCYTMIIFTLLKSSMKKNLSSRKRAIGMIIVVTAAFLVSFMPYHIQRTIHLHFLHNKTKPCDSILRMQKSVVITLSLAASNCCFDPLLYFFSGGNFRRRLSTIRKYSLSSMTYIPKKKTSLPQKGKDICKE
Test: Binding of 3H-Leukotriene D4 to Guinea Pig Lung Membranes (RBL)
Conditions: 1.00 E -4 M
Procedure: Additionally, the activity, of the compounds having the Formula I of the present invention is determined by the well known leukotriene receptor binding assay that is described by R. F. Bruns, W. J. Thomsen and T. A. Pugsley in Life Sciences, 33, 645 (1983) or the Herxheimer in vivo antiallergy test described in H. Herxheimer, J. Physiol. (London), Vol. 177, p. 251 (1952).
[14,15-^3 H]leukotriene D4 (^3 H-LTD4) (25 Ci/mmol and 40 Ci/mmol) is purchased from New England Nuclear. Unlabeled LTC4 is a gift of Ono Pharmaceuticals (Japan). LTC4, LTD4, and LTE4 are purchased as methyl esters from Paesel GmbH (Frankfurt, W. Germany). Concentrations of the Paesel leukotrienes are calculated from their absorbance at 280 nm. Leukotriene esters are saponified overnight under N2 in 3.3% potassium carbonate at room temperature. Tritiated leukotrienes are stored as received from New England Nuclear at -20° C. Ono LTC4 (5 μg/ml) is stored at -60° C. in phosphate buffer pH - 6.8. Saponified Paesel leukotrienes are stored at -60° C. in 3.3% potassium carbonate (pH 9.0-9.5). Aliquots of leukotrienes are taken from stock solutions immediately after thawing, after which the stock solutions are immediately refrozen. 2-Amino-2-(hydroxymethyl)-1,3-propanediol (Tris) is Sigma pH 7.7 pre-set crystals, and dimethylsulfoxide is Aldrich Gold Label. Preparation of crude lung membranes
Two pairs of lungs (1.3 g) from freshly sacrificed 300 g male guinea pigs (older animals gave substantially lower binding) from Kuiper Rabbit Farm, Gary, Ind. are disrupted with a Polytron PT 10 (setting 4) for 30 seconds in 20 ml ice-cold 50 mM Tris adjusted with HCl to pH 7.7 at 25° C. (Tris buffer), filtered through a single layer of gauze to remove connective tissue, and centrifuged at 50,000 xg for ten min. The pellet is resuspended by homogenization with a Polytron in 20 ml Tris buffer, centrifuged at 50,000 xg for ten min., resuspended, incubated at 37° C. for 30 minutes, and centrifuged again. The final pellet is resuspended in Tris buffer and either used fresh or stored at -70° C.
All incubations are in triplicate for 60 minutes at 25° C. in 12×75 mm polystyrene tubes containing 1 ml Tris buffer with 20 mg original tissue wet weight of guinea pig lung membranes, 0.2 nM ^3 H-LTD4 (6,000-11,000 cpm), 10 mM MgCl2, and 1% dimethylsulfoxide. Leukotrienes are diluted in Tris buffer. All other test compounds dissolved at 10 mM in dimethylsulfoxide on the same day as the experiment, and diluted in dimethylsulfoxide to 100× the final incubation concentration. Control incubations receive an equal volume (10 μl) of dimethylsulfoxide; the resulting concentration of dimethylsulfoxide had no effect on binding. ^3 H-LTD4 is diluted to 2 nM in Tris buffer. The membrane suspension (20 mg/0.89 ml) contains sufficient MgCl2 to give 10 mM final concentration in the incubation. […] All additions are performed at 0° C. Immediately after the last addition, the incubation is initiated by agitating the rack of tubes on a vortex mixer and warming to 25° C. in a water bath. Tubes are vortexed at least once more during the incubation to ensure that the membranes remained suspended. Incubations are terminated after 60 minutes by filtering under reduced pressure through 25 mm Whatman GF/B filters followed by rapid washing three times with 4 ml of ice-cold Tris buffer. Filters are added to scintillation vials with 8 ml Formula 947 (New England Nuclear), left overnight, shaken, and the radioactivity counted in a scintillation counter (efficiency 40%). Nonspecific binding, defined as binding of ^3 H-LTD4 in the presence of 100 nM LTC4, is 300-500 cpm for all lots of ^3 H-LTD4. Binding to the filters in the absence of tissue is about 100 cpm, and is not affected by unlabeled LTC4. Specific binding, defined as total binding minus nonspecific binding, varied considerably from lot to lot of ^3 H-LTD4. […]

RBL, % Inhibition	Structure (SMILES)
11.0%	O=C(Nc1ccc(CCc2ccc(Cl)c(Cl)c2)cc1)C(=O)c1sc2ccccc2c1O [Example 136, Benzo[b]thiophene-2-acetamide, N-[4-[2-(3,4-dichlorophenyl)ethyl]phenyl]-3-hydroxy-α-oxo]
3.0%	COc1c(C(=O)Nc2ccc(CCc3ccc(Cl)c(Cl)c3)cc2)sc2ccccc12 [Example 147, Benzo[b]thiophene-2-carboxamide, N-[4-[2-(3,4-dichlorophenyl)ethyl]phenyl]-3-methoxy]

Source: patent US4921871A, “Enolamides, pharmaceutical compositions and methods of use thereof for treating inflammation” (Warner-Lambert Company, priority 1987, dated 1990)
